The source of these data is patent US11254686B1 (Corvus Pharmaceuticals, Inc., priority 2017, dated 2022).

One test has as its target adenosine A1 receptor (Homo sapiens (Human), UniProt P30542). Description: Adenosine receptor activity assay (Table 1), A1 cAMP. The test is classed as cell-based.
The next test has as its target adenosine A3 receptor (Homo sapiens (Human), UniProt P0DMS8). Description: Adenosine receptor activity assay (Table 1), A3 cAMP. The test is classed as cell-based.
The target in another test is adenosine A2A receptor (Homo sapiens (Human), UniProt P29274). The test is described as follows: Adenosine receptor activity assay (Table 1), A2A activity. The test is classed as biochemical. The note with it: read-out: Ave A2A cAMP IC50.
adenosine A2A receptor, sequence (P29274 whole entry): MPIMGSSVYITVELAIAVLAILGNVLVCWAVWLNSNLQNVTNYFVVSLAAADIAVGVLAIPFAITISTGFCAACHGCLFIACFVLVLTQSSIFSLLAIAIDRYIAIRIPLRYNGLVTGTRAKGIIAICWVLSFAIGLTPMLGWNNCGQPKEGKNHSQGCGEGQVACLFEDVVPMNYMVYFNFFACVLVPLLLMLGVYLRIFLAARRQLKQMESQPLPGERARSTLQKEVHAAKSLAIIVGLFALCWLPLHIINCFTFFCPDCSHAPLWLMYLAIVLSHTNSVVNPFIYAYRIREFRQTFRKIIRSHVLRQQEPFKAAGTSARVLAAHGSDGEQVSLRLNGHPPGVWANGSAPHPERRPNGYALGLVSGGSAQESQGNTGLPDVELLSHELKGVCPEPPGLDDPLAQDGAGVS
The target of a further test is adenosine A2B receptor (Homo sapiens (Human), UniProt P29275). The test is described as follows: Adenosine receptor activity assay (Table 1), A2B activity. To be noted: for Ratio: A2A activity to A2B activity (A2A/A2B); for IC50: read-out: Ave A2B cAMP IC50. The test is classed as biochemical.
adenosine A2B receptor, sequence (P29275 whole entry): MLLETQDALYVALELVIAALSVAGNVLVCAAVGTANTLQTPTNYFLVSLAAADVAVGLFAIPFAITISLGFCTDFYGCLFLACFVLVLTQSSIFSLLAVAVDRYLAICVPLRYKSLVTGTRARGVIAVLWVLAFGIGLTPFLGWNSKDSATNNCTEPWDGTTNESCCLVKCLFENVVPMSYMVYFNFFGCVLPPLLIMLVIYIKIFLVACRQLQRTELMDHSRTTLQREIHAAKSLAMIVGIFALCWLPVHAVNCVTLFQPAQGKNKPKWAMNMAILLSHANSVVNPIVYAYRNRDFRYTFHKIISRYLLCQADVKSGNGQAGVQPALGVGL

adenosine A3 receptor, sequence (P0DMS8 whole entry): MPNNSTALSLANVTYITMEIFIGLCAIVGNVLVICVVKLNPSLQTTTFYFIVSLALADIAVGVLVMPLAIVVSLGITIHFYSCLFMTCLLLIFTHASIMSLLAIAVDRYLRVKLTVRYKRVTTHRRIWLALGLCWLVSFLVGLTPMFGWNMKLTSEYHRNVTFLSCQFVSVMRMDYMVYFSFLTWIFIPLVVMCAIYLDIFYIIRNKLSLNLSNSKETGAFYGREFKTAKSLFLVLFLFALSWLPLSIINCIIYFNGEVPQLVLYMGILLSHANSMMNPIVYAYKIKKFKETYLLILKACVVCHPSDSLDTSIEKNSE
adenosine A1 receptor, sequence (P30542 whole entry): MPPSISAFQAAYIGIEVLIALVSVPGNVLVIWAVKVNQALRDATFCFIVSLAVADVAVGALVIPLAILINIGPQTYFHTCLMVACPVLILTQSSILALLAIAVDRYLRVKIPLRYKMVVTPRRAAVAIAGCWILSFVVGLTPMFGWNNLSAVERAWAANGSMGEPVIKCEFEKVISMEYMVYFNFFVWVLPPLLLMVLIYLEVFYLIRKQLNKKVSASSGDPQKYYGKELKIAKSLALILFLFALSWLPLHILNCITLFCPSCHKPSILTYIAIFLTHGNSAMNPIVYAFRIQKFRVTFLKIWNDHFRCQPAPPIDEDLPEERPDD

One may read the IC50 as the concentration that inhibits the measured activity by half. For the compound `COC1CN(C(=O)c2nc(N[C@@H](C)c3cncc(Cl)c3)nc3ccsc23)C1` [Example Z233, (S)-(2-((1-(5-Chloropyridin-3-yl)ethyl)amino)thieno[3,2-d]pyrimidin-4-yl)(3-methoxyazetidin-1-yl)methanone], the IC50 is greater than 0.5 µM against adenosine A1 receptor, greater than 0.5 µM against adenosine A3 receptor, 0.1 to 0.5 µM at adenosine A2A receptor and less than 0.01 µM at adenosine A2B receptor. Further, the Ratio on adenosine A2B receptor is on record as 51.97.

As for `Cc1cc2nc(N[C@@H](C)c3cncc(F)c3)nc(C(=O)NCC(F)(F)F)c2s1` [Example Z280, (S)-2-((1-(5-Fluoropyridin-3-yl)ethyl)amino)-6-methyl-N-(2,2,2-trifluoroethyl)thieno[3,2-d]pyrimidine-4-carboxamide], the 50% inhibitory concentration (IC50) at adenosine A1 receptor was 0.01 to 0.05 µM; against adenosine A3 receptor it was 0.05 to 0.1 µM; on adenosine A2A receptor, 0.01 to 0.05 µM; at adenosine A2B receptor, less than 0.01 µM. Besides, the Ratio at adenosine A2B receptor came to 24.55.

Take `C[C@H](Nc1nc(C(=O)N2CC[C@@H](O)C2)c2sccc2n1)c1cncc(Cl)c1` [Example Z237, (2-(((S)-1-(5-Chloropyridin-3-yl)ethyl)amino)thieno[3,2-d]pyrimidin-4-yl)((R)-3-hydroxypyrrolidin-1-yl)methanone]: the IC50 on adenosine A1 receptor was greater than 0.5 µM; against adenosine A3 receptor it was greater than 0.5 µM; on adenosine A2A receptor it was greater than 0.5 µM; at adenosine A2B receptor it was 0.01 to 0.05 µM. In addition, the Ratio on adenosine A2B receptor was determined as 65.87.

For `CO[C@H]1CCN(C(=O)c2nc(N[C@@H](C)c3ccccn3)nc3ccsc23)C1` [Example Z255, ((S)-3-Methoxypyrrolidin-1-yl)(2-(((S)-1-(pyridin-2-yl)ethyl)amino)thieno[3,2-d]pyrimidin-4-yl)methanone], the IC50 against adenosine A1 receptor is greater than 0.5 µM; against adenosine A3 receptor, greater than 0.5 µM; on adenosine A2A receptor, 0.01 to 0.05 µM; on adenosine A2B receptor, 0.01 to 0.05 µM. In addition, the Ratio at adenosine A2B receptor is 1.81.

As to “((R)-3-Methoxypyrrolidin-1-yl)(2-(((S)-1-(pyridin-2-yl)ethyl)amino)thieno[3,2-d]pyrimidin-4-yl)methanone [Example Z247]”, the concentration for half-maximal inhibition (IC50) against adenosine A1 receptor was greater than 0.5 µM; against adenosine A3 receptor it was greater than 0.5 µM; on adenosine A2A receptor it was 0.05 to 0.1 µM; at adenosine A2B receptor, 0.01 to 0.05 µM. In addition, the Ratio on adenosine A2B receptor is 2.54.

For `C[C@H](Nc1nc(C(=O)NCCc2ccc(CO)cc2)c2sccc2n1)c1cncc(F)c1` [Example Z384, (S)-2-((1-(5-Fluoropyridin-3-yl)ethyl)amino)-N-(4-(hydroxymethyl)phenethyl)thieno[3,2-d]pyrimidine-4-carboxamide], the concentration for half-maximal inhibition (IC50) at adenosine A1 receptor is 0.05 to 0.1 µM; at adenosine A3 receptor it was greater than 0.5 µM; on adenosine A2A receptor it was 0.1 to 0.5 µM; at adenosine A2B receptor, 0.01 to 0.05 µM. The Ratio at adenosine A2B receptor was 13.78.

Regarding `CO[C@H]1CCN(C(=O)c2nc(N[C@@H](C)c3cncc(Cl)c3)nc3ccsc23)C1` [Example Z254, (2-(((S)-1-(5-Chloropyridin-3-yl)ethyl)amino)thieno[3,2-d]pyrimidin-4-yl)((S)-3-methoxypyrrolidin-1-yl)methanone], the IC50 against adenosine A1 receptor was greater than 0.5 µM; against adenosine A3 receptor, greater than 0.5 µM; at adenosine A2A receptor it was 0.1 to 0.5 µM; on adenosine A2B receptor, 0.01 to 0.05 µM. Moreover, the Ratio on adenosine A2B receptor is recorded as 9.38.

On to `C[C@H](Nc1nc(C(=O)N[C@H]2C[C@@H](O)C2)c2sccc2n1)c1cncc(Cl)c1` [Example Z305, 2-(((S)-1-(5-Chloropyridin-3-yl)ethyl)amino)-N-((1s,3R)-3-hydroxycyclobutyl)thieno[3,2-d]pyrimidine-4-carboxamide], for which the concentration for half-maximal inhibition (IC50) was greater than 0.5 µM against adenosine A1 receptor, greater than 0.5 µM on adenosine A3 receptor, 0.05 to 0.1 µM at adenosine A2A receptor and less than 0.01 µM on adenosine A2B receptor. For the same compound, the Ratio at adenosine A2B receptor is recorded as 38.51.

With `CC(C)(C)OC(=O)N[C@@H]1CCN(C(=O)c2nc(NCc3cncc(F)c3)nc3ccsc23)C1` [Example Z239, tert-Butyl (R)-(1-(2-(((5-fluoropyridin-3-yl)methyl)amino)thieno[3,2-d]pyrimidine-4-carbonyl)pyrrolidin-3-yl)carbamate], the half-maximal inhibitory concentration (IC50) against adenosine A1 receptor was greater than 0.5 µM; against adenosine A3 receptor it was 0.01 to 0.05 µM; at adenosine A2A receptor, 0.1 to 0.5 µM; at adenosine A2B receptor, less than 0.01 µM. Further, the Ratio on adenosine A2B receptor is on record as 14.97.

In the case of `Cc1cc2nc(N[C@@H](C)c3cncc(F)c3)nc(C(=O)NCC3CCOCC3)c2s1` [Example Z376, (S)-2-((1-(5-Fluoropyridin-3-yl)ethyl)amino)-6-methyl-N-((tetrahydro-2H-pyran-4-yl)methyl)thieno[3,2-d]pyrimidine-4-carboxamide], the IC50 on adenosine A1 receptor was 0.05 to 0.1 µM; against adenosine A3 receptor it was 0.05 to 0.1 µM; at adenosine A2A receptor, 0.1 to 0.5 µM; on adenosine A2B receptor, less than 0.01 µM. The Ratio at adenosine A2B receptor turned out to be 32.01.

As to `Cc1cc2nc(N[C@@H](C)c3ccccn3)nc(C(=O)NC3CCC3)c2s1` [Example Z352, (S)—N-Cyclobutyl-6-methyl-2-((1-(pyridin-2-yl)ethyl)amino)thieno[3,2-d]pyrimidine-4-carboxamide], the IC50 is 0.05 to 0.1 µM against adenosine A1 receptor, 0.05 to 0.1 µM on adenosine A3 receptor, 0.01 to 0.05 µM at adenosine A2A receptor and less than 0.01 µM at adenosine A2B receptor. The Ratio on adenosine A2B receptor was 9.52.

With `C[C@H](Nc1nc(C(=O)N2CC[C@@H](CO)C2)c2sccc2n1)c1cccnc1` [Example Z260, ((R)-3-(Hydroxymethyl)pyrrolidin-1-yl)(2-(((S)-1-(pyridin-3-yl)ethyl)amino)thieno[3,2-d]pyrimidin-4-yl)methanone], the IC50 against adenosine A1 receptor was greater than 0.5 µM; against adenosine A3 receptor it was greater than 0.5 µM; on adenosine A2A receptor, 0.1 to 0.5 µM; at adenosine A2B receptor, 0.01 to 0.05 µM. In addition, on adenosine A2B receptor, the Ratio is listed as 16.27.

For the compound `COC1CN(C(=O)c2nc(N[C@@H](C)c3cccnc3)nc3cc(C)sc23)C1` [Example Z286, (S)-(3-Methoxyazetidin-1-yl)(6-methyl-2-((1-(pyridin-3-yl)ethyl)amino)thieno[3,2-d]pyrimidin-4-yl)methanone], the IC50 is greater than 0.5 µM on adenosine A1 receptor, greater than 0.5 µM against adenosine A3 receptor, 0.05 to 0.1 µM at adenosine A2A receptor and less than 0.01 µM on adenosine A2B receptor. The Ratio on adenosine A2B receptor came out at 26.11.

Take `Cc1cc2nc(N[C@@H](C)c3cccnc3)nc(C(=O)N3CC[C@H](CO)C3)c2s1` [Example Z336, ((S)-3-(Hydroxymethyl)pyrrolidin-1-yl)(6-methyl-2-(((S)-1-(pyridin-3-yl)ethyl)amino)thieno[3,2-d]pyrimidin-4-yl)methanone]: the IC50 against adenosine A1 receptor is greater than 0.5 µM; against adenosine A3 receptor, greater than 0.5 µM; at adenosine A2A receptor, greater than 0.5 µM; at adenosine A2B receptor, less than 0.01 µM. For the same compound, on adenosine A2B receptor, the Ratio was 136.91.

With `C[C@H](Nc1nc(C(=O)N2CCC2)c2sccc2n1)c1cncc(Cl)c1` [Example Z232, (S)-Azetidin-1-yl(2-((1-(5-chloropyridin-3-yl)ethyl)amino)thieno[3,2-d]pyrimidin-4-yl)methanone], the half-inhibitory concentration (IC50) on adenosine A1 receptor is greater than 0.5 µM; against adenosine A3 receptor, greater than 0.5 µM; on adenosine A2A receptor, 0.1 to 0.5 µM; at adenosine A2B receptor, less than 0.01 µM. Further, the Ratio on adenosine A2B receptor was 60.88.

As for `Cc1cc2nc(N[C@@H](C)c3cccnc3)nc(C(=O)NCCO)c2s1` [Example Z368, (S)—N-(2-Hydroxyethyl)-6-methyl-2-((1-(pyridin-3-yl)ethyl)amino)thieno[3,2-d]pyrimidine-4-carboxamide], the IC50 is 0.05 to 0.1 µM against adenosine A1 receptor, 0.05 to 0.1 µM at adenosine A3 receptor, 0.1 to 0.5 µM on adenosine A2A receptor and less than 0.01 µM at adenosine A2B receptor. Further, the Ratio at adenosine A2B receptor is reported as 74.02.
